The values that follow come from US8608967B2, “Multiple stationary phase matrix and uses thereof” (The Board of Trustees of the University of Arkansas, priority 2011, dated 2013).

One series can be described thus: Dual-phase UHPLC-MS/MS profiling of warfarin and hydroxywarfarins in plasma of patients receiving warfarin. As to conditions: four plasma samples of patients receiving warfarin. The method, then:
Human plasma samples were processed as described previously (Wikoff et al., Proc Natl Acad Sci, 2009, 106:3698). […] Following equilibration, ice cold 0.2% formic acid in H2O (190 μL) was added to each sample, followed by ice cold 0.2% formic acid in acetonitrile (1000 μL). Samples were allowed to precipitate at 4° C. for 30 minutes, followed by centrifugation (10 min at 16,000 g) in a microcentrifuge. The supernatant (1000 μL) was then transferred to a new vial and dried down in a speed vacuum concentrator. Plasma extracts were resolubilized (40 μL) in mobile phase (55% methanol, 45% H2O with 0.01% formic acid) maintaining a 1:1 ratio with the original volume of plasma.
Standard curves containing all hydroxywarfarins and deuterated internal standards were prepared in potassium phosphate (50 mM, pH 7.4) and analyzed in triplicate with the assay conditions described above. […] The limit of quantification (LOQ) was defined as 5 times the LOD. Metabolite concentrations calculated to be below the limit of quantification were reported as LOQ.
All samples were from males and are referred to as M61, […], […], and M80, respectively. Plasma samples were extracted as described above, and analyzed independently on three separate days.
Consider `CC(=O)C(O)[C@H](c1ccccc1)c1c(O)c2ccccc2oc1=O` (single isomer, unassigned) [R10a], for which the “presence of metabolite in human plasma (in words)” value (“presence of metabolite” below) is “major observed metabolites”.
With `CC(=O)C(O)[C@H](c1ccccc1)c1c(O)c2ccccc2oc1=O` (single isomer, unassigned) [R10b], the “presence of metabolite” value is recorded as “major observed metabolites”.
`CC(=O)CC(c1ccc(O)cc1)c1c(O)c2ccccc2oc1=O` (stereo not drawn) [4″-hydroxywarfarin]: the “presence of metabolite” value was “observed in some samples, but was below the limit of quantitation”.
Same read-out and setting: with `CC(=O)CC(c1ccccc1)c1c(O)c2cccc(O)c2oc1=O` (stereo not drawn) [8-hydroxywarfarin] the entry was “below the limit of detection”.
On to `CC(=O)C[C@H](c1ccccc1)c1c(O)c2ccc(O)cc2oc1=O` [R7, R-7-hydroxywarfarin], for which the “presence of metabolite” value was “observed in all four plasma samples”.
Take `CC(=O)C[C@@H](c1ccccc1)c1c(O)c2ccc(O)cc2oc1=O` [S7, S-7-hydroxywarfarin]: the “presence of metabolite” value is “major observed metabolites”.
The same measure, in the same setting: the same measure for `CC(=O)C(O)[C@@H](c1ccccc1)c1c(O)c2ccccc2oc1=O` (stereo partly drawn) [S10a]: “detected but below the limit of quantitation”.

Staying with this series, now noted: patients M61 and M75; 10-hydroxywarfarin derived from both R and S-warfarin.
Take `CC(=O)C(O)C(c1ccccc1)c1c(O)c2ccccc2oc1=O` (stereo not drawn) [10-hydroxywarfarin]: the “total plasma concentration compared with S-7-hydroxywarfarin” value is “higher than S-7-hydroxywarfarin concentrations”.

The series is the same for the next values; noted with them: patients M76 and M80.
`CC(=O)C[C@@H](c1ccccc1)c1c(O)c2ccc(O)cc2oc1=O` [S7, S-7-hydroxywarfarin]: the “most abundant metabolite in plasma” value is “the most abundant metabolite”.
